Laboratory results: US9963474B2, “Mitochondria-targeted dicarbonyl sequestering compounds” (MEDICAL RESEARCH COUNCIL, priority 2013, dated 2018)

Experiments:
BAECs [1] = assay: Quantification of MQE and QE in cells by LC-MS/MS; assay type: cell-based, bovine; details: 2 μM MitoG; for amounts of MQE and QE detected after exogenous methylglyoxal or glyoxal: 10 mM AG or 2 μM FCCP
Procedure: (A) and (B) BAECs were incubated with 2 μM MitoG for 1 h and sometimes supplemented with 10 mM AG or 2 μM FCCP. Methylglyoxal (A) or glyoxal (B) were then added, and after a further 3 h incubation the levels of MQE and QE in the cell layers were determined by LC-MS/MS relative to deuterated ISs. (C, D) BAECs were incubated in media containing low (5 mM) or high (30 mM) D-glucose with 2 μM MitoG for the times indicated. Levels of MQE (C) and QE (D) in the cell layers were determined by LC-MS/MS relative to deuterated ISs. Results are means±S.E. of four independent experiments. (E) BAECs were incubated for 4 h in the presence of 2 μM MitoG in media containing either 5 mM D-glucose (low), 30 mM D-glucose (high), 5 mM D-glucose/25 mM L-glucose (L-glucose), or 30 mM D-glucose/10 mM aminoguanidinium. Levels of MQE in the cell layers were determined by LC-MS/MS relative to deuterated ISs. (F) BAECs were incubated in media containing high (30 mM) D-glucose with 2 μM MitoG for 4 h with the indicated concentrations of the glyoxalase I inhibitor bromobenzyl glutathione cyclopentyl diester. Levels of MQE and QE in the cell layers were then determined by LC-MS/MS relative to deuterated ISs. Results are means±S.E. of three determinations. Results are means±S.E. of three (A, B) or four (C-E) independent experiments. *, P<0.05 or **, P<0.01, relative to untreated (A, B) or indicated (C-E) controls; ##, P<0.01 relative to cells treated with 250 μM 1,2-dicarbonyl.
For LC-MS/MS analysis of MitoG reaction products cells were incubated in T25 flasks (Nunc) with 2 μM MitoG at 37° C. Cell monolayers were washed (1 ml PBS), scraped into 1.5 ml PBS and pelleted by centrifugation (16,000 g for 2 min). The pellet was re-suspended in 250 μl 100% acetonitrile/0.1% spiked with deuterated internal standards (ISs) ([…] each of d15-MQE and d15-QE), vortexed and centrifuged (2×16,000 g for 15 min). Samples were dried under vacuum (Savant SpeedVac), re-suspended in 100 μl 20% acetonitrile/0.1% formic acid, vortexed, centrifuged (16,000 g for 10 min), transferred to silanised autosampler vials [Chromacol #1.5HRRV(S)], flushed and sealed under argon and then stored at −80° C. until LC-MS/MS analysis. Where specified, cells were subjected to acute glycaemia treatment and were incubated either in low glucose (5 mM D-glucose), high glucose (30 mM D-glucose), or in osmotic control medium (5 mM D-glucose+25 mM L-glucose) for 4 h.
LC-MS/MS analyses were carried out using a triple quadrupole mass spectrometer (Waters Xevo TQ-S) with an I-class Aquity LC system (Waters) attached. Samples were kept at 4° C. prior to injection by the autosampler of 10 μl into a 15 μl flow-through needle and RP-HPLC at 30° C. using a Luna 5 Phenyl-Hexyl column (1×50 mm, 5 μm; Phenomenex) with a Phenyl-Hexyl guard column (2×4 mm; Phenomenex). Buffers used were MS buffer A [0.1% (v/v) formic acid in water] and MS buffer B [95% acetonitrile/0.1% formic acid (both v/v)]. A gradient was run at […] as follows: 0-2 min—5% B; 2-3 min—5-25% B; 3-5 min—25-75% B; 5-7 min—75-100% B; 7-10 min—100% B; 10-12 min—100-5% B; 12-20 min—5% B. Eluant was diverted to waste from the mass spectrometer at 0-5 min and 16-20 min acquisition time using an in-line divert valve. […] Transitions used for quantification were as follows: MQE, 506>262; d15-MQE, 521>277; QE, 492>262 and d15-QE, 507>277. […]

BAECs [2] = assay: Protection against dicarbonyl-induced cell death, BAECs, MTS assay; assay type: cell-based, bovine; details: pre-treated 1 h, overnight
Procedure: (§1) Isolated RLM respiring on glutamate/malate were incubated with MitoG, methoxyphenylenediamine (MP) or butylTPP for 2 min, followed by 0.5 mM methylglyoxal or 5 mM glyoxal for 5 min. ADP was then added and the rate of oxygen consumption monitored at 37° C. (see FIGS. 12A & 12B). C2C12 cells were pre-treated with MitoG, methoxyphenylenediamine (MP) or butylTPP for 1 h before exposure to 1 mM methylglyoxal or 5 mM glyoxal (see FIGS. 12C & 12D). Following an overnight incubation, cell survival was determined using the MTS assay. Similar experiments were conducted in BAECs pre-treated with MitoG, MP or butylTPP. For all experiments, concentrations of methylglyoxal and glyoxal used were chosen based on results from studies conducted prior to the protection assays. In these prior studies, RLM or cells were exposed to a range of dicarbonyl concentrations, and the phosphorylating rates of respiration or cell survival were evaluated. The results of these earlier experiments are shown in insets, and dicarbonyl concentrations that had caused significant respiratory depression or cell death were chosen for use in the protection assays. Data for all groups were normalized against untreated controls. For RLM, the rate of respiration by untreated controls was taken to be 100%; for cells, cell survival of untreated controls was taken to be 100%. Results are expressed as mean±S.E. of three independent experiments. MitoG was protective against methylglyoxal-induced respiratory depression and both methylglyoxal- and glyoxal-induced cell death in C2C12 cells and BAECs. […] In FIG. 12 the symbols *, ** respectively indicate that P<0.05 or P<0.01 relative to dicarbonyl-only groups; and the symbols +, ++ respectively indicate that P<0.05 or P<0.01 relative to untreated controls.

C2C12 cells = assay: Protection against dicarbonyl-induced cell death, C2C12, MTS assay; assay type: cell-based, mouse; details: pre-treated 1 h, overnight; for protection against methylglyoxal-induced cell death: C2C12, 1 mM methylglyoxal; for protection against glyoxal-induced cell death: C2C12, 5 mM glyoxal
Procedure: as §1

[3] = system: RLM respiring on glutamate/malate; assay: Protection against dicarbonyl-induced respiratory depression in isolated RLM; parameters: species or system rat; details: 37° C.; for protection against methylglyoxal-induced respiratory depression: 0.5 mM methylglyoxal; for protection against glyoxal-induced respiratory depression: 5 mM glyoxal
Procedure: as §1

[4] = system: C57Bl6/J mice with STZ-induced Type I diabetes; assay: STZ-induced Type I diabetes mouse model, diabetic complications in the heart; assay type: in vivo
Procedure: To determine the effects of MitoG-amide on diabetic complications in the heart a well-established mouse model of type I diabetes was used, based on destruction of the beta-cells in the pancreas by administration of the beta-cell toxin streptozotocin (STZ; obtainable from Selleck Chemicals, Munich, Germany). Mice that were 6-7 week old C57Bl6/J mice (>20 g) were administered STZ (50 mg/kg by intraperitoneal injection) on 5 consecutive days. The death of the beta-cells and the induction of the high blood glucose associated with Type I diabetes was confirmed by weekly blood glucose tests on mice tail vein blood sample. A blood glucose level >17 mmol/l was considered diabetic. For experiments, mice were divided into three groups: (a) control; (b) STZ-induced Type I diabetes; and (c) STZ-induced Type I diabetic animals treated with MitoG-amide (10 mg/kg body weight once per day via gavage). This was repeated for 12 weeks (FIG. 13). At the end of the protocol, mice underwent cardiac magnetic resonance imaging (MRI) measurement (FIG. 14) followed by left ventricular catheter-based Pressure/Volume (P/V) measurement (FIG. 15). The MRI and P/V loop measurements were performed on the same day and the MRI volume measures were used as correction for the P/V loop.
For the cardiac magnetic resonance imaging (MRI) measurement a standard cardiac MRI protocol with a 4.7T Bruker BioSpec system was performed 24 h after surgery. Anaesthesia was induced with 3% and maintained with 1.25% isoflurane in oxygen. Temperature was monitored with a rectal probe and maintained constant via a heated water blanket, respiration was monitored using a pillow connected to a piezoelectric transducer. Electrocardiogram (ECG) signals were monitored with neonatal graphite (3M) electrodes, placed over the front left and rear right paws.
A 12 cm diameter birdcage was used to transmit the signal and a 4 channel cardiac array coil was used for signal reception. The imaging protocol consisted of scout scans followed by ECG-gated fast imaging with steady state […] (FISP) slices (repetition time/echo time TR/TE 6/2.4 ms 13-20 frames, 3.5 cm field of view (FOV), 256 matrix, 1 mm slice thickness, bandwidth 64.1 kHz, flip angle (FA) 20°, 2 sampling average [number of excitations, NEX]), in the long-axis and in the short-axis to cover the whole heart. In post processing, volumes during different phases of the ECG were delineated and integrated over whole heart using Simpson's rule. Global functional parameters were obtained including ejection fraction, the fraction of blood ejected into the circulation during one heartbeat.
For the Pressure/Volume (P/V) measurement, left ventricular catheterization via the right carotid artery was carried out using a 1.2 F pressure-catheter (Scisense Inc., London, Canada).
The results of the long-term treatment of the STZ-induced Type I diabetes administered with MitoGamide on body weight, blood glucose and heart rate were compared with placebo-treated STZ mice and controls (FIG. 16). The blood glucose was measured on whole blood using Johnson and Johnson's OneTouch® Ultra Blood Glucose Monitoring System. The heart rate was measured during use of the P/V loop catheter and recorded.
To assess the effect of MitoGamide on the well-known detrimental effects of long-term hyperglycaemia in Type I diabetes heart function was measured by MRI and by P/V loop measurement (FIG. 17). Mice that were 6-7 week old C57Bl6/J mice (>20 g) were administered STZ (50 mg/kg by intraperitoneal injection) on 5 consecutive days. The death of the beta-cells and the induction of the high blood glucose associated with Type I diabetes was confirmed by weekly blood glucose tests on mice tail vein blood sample. A blood glucose level >17 mmol/l was considered diabetic. […]

[5] = 10 mg/kg once per day via gavage, 12 weeks
[6] = MRI, 10 mg/kg once per day via gavage
[7] = P/V loop, 10 mg/kg once per day via gavage

| SMILES | amounts of MQE and QE detected after exogenous methylglyoxal or glyoxal (BAECs [1]) | protection against glyoxal-induced cell death (BAECs [2]) | protection against methylglyoxal-induced cell death (BAECs [2]) | protection against methylglyoxal-induced cell death (C2C12 cells) | protection against glyoxal-induced cell death (C2C12 cells) | protection against methylglyoxal-induced respiratory depression [3] | protection against glyoxal-induced respiratory depression [3] | also measured |
| --- | --- | --- | --- | --- | --- | --- | --- | --- |
| N=C(N)NN [AG, aminoguanidine] | reduced |  |  |  |  |  |  | formation of MQE under high glucose (BAECs [1]; 30 mM D-glucose/10 mM aminoguanidinium, 4 h): decreased |
| CCCC[P+](c1ccccc1)(c1ccccc1)c1ccccc1 [ButylTPP] |  | not significantly protective | not significantly protective | not significantly protective | not significantly protective | not significantly protective | not significantly protective |  |
| N#CC(C#N)=NNc1ccc(OC(F)(F)F)cc1 [FCCP, carbonylcyanide p-trifluoromethoxyphenylhydrazone] | reduced |  |  |  |  |  |  | formation of MQE/QE under high glucose (BAECs [1]; high glucose, with uncoupler): blocked |
| CCCCCCOc1ccc(N)c(N)c1 [HP, 4-Hexyloxybenzene-1,2-diamine] |  | not significantly protective | not significantly protective | not significantly protective | not significantly protective | not significantly protective | not significantly protective |  |
| Nc1ccc(C(=O)NCCC[P+](c2ccccc2)(c2ccccc2)c2ccccc2)cc1N [MitoGamide, [3-(3,4′-Diaminobenzoylamino)-prop-1-yl]triphenylphosphonium m esylate] |  |  |  |  |  |  |  | effect on STZ-induced decrease in body weight [4, 5]: neither of which were affected; effect on STZ-induced increase in blood glucose [4, 5]: neither of which were affected; heart rate [4, 5]: neither STZ- or MitoGamide-treatment affected heart rate; increase in diastolic stiffness in diabetic mice ([4]; MRI-corrected P/V loops, 10 mg/kg once per day via gavage): prevented; end diastolic volume impaired by STZ [4, 6]: not ameliorated; systolic ejection fraction [4, 6]: neither STZ nor MitoGamide had any effect; increase in end diastolic pressure in diabetic mice [4, 7]: prevented; left ventricular diastolic time constant (Tau Weiss) impaired by STZ [4, 7]: not ameliorated; oxidative damage in the heart (4-hydroxynonenal staining) ([4]; heart histology, antibody against 4HNE): decreased oxidative damage |
| NC(CCC(=O)NC(CSCc1ccc(Br)cc1)C(=O)NCC(=O)OC1CCCC1)C(=O)OC1CCCC1 (centres unmarked) [bromobenzyl glutathione cyclopentyl diester] |  |  |  |  |  |  |  | amount of MQE and QE under high glucose (BAECs [1]; high glucose, 4 h, glyoxalase I inhibitor): increased |
